What is called pKa is the negative logarithm of the acid dissociation constant. Molecule `CCC1CCCN1C` (stereo unspecified) registered a pKa (basic group) of 9.78.
Take `CC(C)(C)[C@]1(O)CCN2C[C@@H](c3ccccc3)c3ccccc3[C@@H]2C1`: under “basic group”, the pKa amounted to 7.03.
In the case of `Oc1cccc2c1CCC2`, the pKa (acidic group) was 10.2.
As to `Cc1ccc([C@H]2C[C@@H]2C(=O)O)cc1`, for the setting “acidic group”, the pKa was determined as 4.6.
As to `C/C=C1/CN2[C@@H]3C[C@H]1C1[C@@H](O)[C@]4(C[C@@H]12)c1ccccc1N(C)[C@@H]34` (stereo partly specified), the pKa (basic group) came out at 8.5.
`CCSC(=O)c1ccc(C)cc1`: the pKa (basic group) is -4.2.
Regarding `CCCCCCN(CC(C)O)CC(C)O` (stereo unspecified), the pKa (basic group) came out at 8.5.
`CN[C@@H]1[C@@H](C)[C@@H]1[NH2+]C` showed a pKa (basic group) of 3.68.
Consider `S=C(Nc1ccc(Cl)cc1)c1ccc(Cl)cc1`, for which the pKa (acidic group) amounted to 10.2.
The molecule `Nc1cccc2cn[nH]c12` yielded a pKa (basic group) of 3.05.
In the case of `Cc1cscn1`, where the note is “basic group”, the pKa is 3.14.
Under “basic group”, `CCCCCC/N=C/c1c(C)cnc(C)c1O` registered a pKa of 6.22.
Still for that read-out and setting: the figure for `Nc1cc([NH3+])ccc1O` is 3.05.
On to `O=C(O)c1ccccc1Br`, for which the pKa (acidic group) was found to be 2.93.
In the case of `Cn1nc(-c2ccccc2)cc1O`, the pKa (acidic group) was determined as 10.9.
`CCCc1ncc[nH]1` came in with a pKa (basic group) of 8.02.
Consider `CC(C)(C)c1ccc(-c2c(O)c2=O)cc1`, for which the pKa (acidic group) amounted to 2.21.
In turn, `CCCCCc1cccnn1` returned a pKa (basic group) of 3.7.
For the molecule `CNc1cc[n+](C)c([O-])n1`, the pKa (basic group) was determined as 4.47.
On the same count and under the same terms, to `CC(C)([NH3+])CN` belongs 6.79.
`CC(C)C(N)C(N)=O` (stereo unspecified) had a pKa (acidic group) of 8.
The molecule `ClCC1CC2CCN1CC2` (stereo unspecified) gave a pKa (basic group) of 9.68.
Consider `Nc1nc(N)nc([O-])n1`, for which the pKa (basic group) is 9.4.
For the setting “acidic group”, `O=C(O)c1ccc([N+](=O)[O-])cc1` came in with a pKa of 3.43.
For `NC1=[NH+][C@H]2C[C@@H](N1)[NH2+][C@@H]2C(=O)O`, the pKa (acidic group) was determined as 1.3.
For `O=C(Cc1ccccc1Nc1c(Cl)cccc1Cl)OCCCN1CCOCC1`, the pKa (basic group) turned out to be 7.99.
Where the note is “basic group”, `CCNc1nc(NCC)nc(NCC)n1` returned a pKa of 5.84.
`CCNc1ncnc2c1cnn2C` registered a pKa (basic group) of 4.24.
With `CN1CCC=C(C(=O)[O-])C1`, the pKa (basic group) amounted to 9.07.
For the molecule `N#CC(C(=O)O)c1ccccc1` (stereo unspecified), under “acidic group”, the pKa worked out at 1.77.
With `C=C(C)C(=O)NC(C)(C)CCN(C)C`, the pKa (basic group) came out at 9.37.
`CN(C)c1ccc(Br)cc1`: under “basic group”, the pKa was 4.25.
Regarding `Sc1ccc2ncccc2c1`, the pKa (acidic group) is 6.5.
As for `C[NH+]1C[C@H](C(=O)O)C=C2c3cccc4[nH]cc(c34)C[C@@H]21`, the pKa (acidic group) turned out to be 3.25.
As to `c1ccc(-n2cccn2)[nH+]c1`, the pKa (basic group) is -4.8.
`O=[N+]([O-])c1ccc2c(c1)Cc1cc(O)ccc1-2` returned a pKa (acidic group) of 9.01.
Molecule `C[NH+](C)CCCN=C(c1ccccc1)c1ccccc1` registered a pKa (basic group) of 5.2.
`Cc1ccc(C(=O)O)c([N+](=O)[O-])c1` displayed a pKa (acidic group) of 2.68.
For the molecule `NCC(=O)C[NH3+]`, the pKa (basic group) is 6.89.
As for `COc1cccnc1C(O)O`, the pKa (acidic group) is 12.9.
Still for that read-out and setting: the figure for `CC(C)([SeH])C[NH3+]` is 5.21.
In the case of `Cc1ccc(NCCS)cc1`, the pKa (basic group) is 5.08.
Regarding `C[C@H]1C[C@@H]2CCN1C2`, for the setting “basic group”, the pKa is 10.6.
Where the note is “acidic group”, `CC[NH+](CC)Cc1cc(Cl)cc(Cl)c1O` returned a pKa of 5.95.
Under “basic group”, `NCCCCc1ccccn1` yielded a pKa of 10.3.
Same read-out and setting: to `CNCC(=O)NC` belongs 8.28.
The molecule `N#CCc1ccc(C#N)cc1[N+](=O)[O-]` gave a pKa (acidic group) of 11.4.
Regarding `[NH3+]c1ccc(-c2cnc(-c3ccc(Br)cc3)o2)cc1`, where the note is “basic group”, the pKa turned out to be 0.26.
Molecule `Cc1ccccc1C(=O)O` showed a pKa (acidic group) of 3.92.
As for `Nc1nnnn1Cc1ccccc1`, under “basic group”, the pKa came out at 1.44.
With `Nc1cccnc1C(=O)[O-]`, the pKa (basic group) is 7.18.
`C[C@@H]1CCN2CC=C[C@H]12` had a pKa (basic group) of 10.6.
In the case of `O=C(O)[C@@H]1O[C@H](Oc2ccc3ccc[nH+]c3c2)[C@@H](O)[C@H](O)[C@H]1O`, the pKa (acidic group) worked out at 3.
With `Cc1cc(C)n(C)c(=O)n1`, the pKa (basic group) came out at 4.
In turn, `CNC(C)CC1CCCCC1` (stereo unspecified) registered a pKa (basic group) of 10.5.
On the same count and under the same terms, the figure for `O=C1C[C@H]2OCC(S(=O)(=O)[O-])=C3CN4CC[C@@]56c7ccccc7N1[C@@H]5[C@@H]2[C@@H]3C[C@@H]46` is 7.54.
Same read-out and setting: the figure for `COc1c(Br)cccc1C(=O)N[C@@H]1C[C@H]2CC[C@@H](C1)N2Cc1ccccc1` is 8.73.
`Cc1cc(Cc2cc(C)c(O)c(C)c2)c([O-])c([N+](=O)[O-])c1`: the pKa (acidic group) was 11.1.
Turning to `N/C(C/C(N)=N/O)=N\O`, the pKa (basic group) was 4.77.
As to `CCCc1c(C)nn(-c2ccccc2)c1O`, for the setting “acidic group”, the pKa is 11.4.
`Cn1ccc(=O)c2ccccc21`: the pKa (basic group) stood at 2.36.
Under “basic group”, `C1OC1CN(CC1CO1)CC1CO1` (stereo unspecified) had a pKa of 5.01.
Take `CC[NH+](CCO)c1ccc(N)cc1`: under “basic group”, the pKa came to 3.04.
As to `COc1ccccc1CCC(=O)O`, the pKa (acidic group) worked out at 4.8.
As for `CCCCCN(CCO)CC(O)CC` (stereo unspecified), the pKa (basic group) came to 9.1.
`CSc1ccc(N)c(I)c1`: the pKa (basic group) was determined as 2.45.
`CCN(CC)CCNc1nc(C)cc(N)n1` showed a pKa (basic group) of 9.8.
For the molecule `O=C(O)CCC(=O)c1cccc2ccccc12`, the pKa (acidic group) is 4.48.
The molecule `c1cnc2c(c1)ccc1c3c(cnc12)CCC3` had a pKa (basic group) of 5.78.
Under “basic group”, `C[C@H]1CC[C@@H]2CCCN21` came in with a pKa of 11.7.
For the molecule `C[N+](C)(C)CCc1ccccc1O`, the pKa (acidic group) came to 9.57.

The record behind these values is the pKa sets of Baltruschat and Czodrowski (2020).
